This note sets out measurements from US20190248834A1, “ENDOMORPHIN-2, TETRAPEPTIDE DERIVATIVES THEREOF, AND USES THEREOF” (priority 2016, published 2019).

Non-standard residues stand in square brackets, D forms with d. pGlu = O=C1CC[C@@H](C(=O)O)N1 Where only a bound is given, the exact number is not on record here.

What all share (format): in vivo, human
For one assay, the system named is sunburn pain. As to the kind of experiment: Example 30: analgesic effect on sunburn pain, topical. Conditions: 1% (w/v) in WEP442, topical. The text has this:
A subject with severe sunburn of their anterior legs the day after exposure to sunlight without sunscreen protection, topically applied a composition containing 1% (w/v) of N-Ac-Tyr-Pro-Phe-Phe-NH2 (SEQ ID NO: 23) in WEP442 to both legs.

Assay [1] deals with finger pain following trauma. Put plainly: Example 31: analgesic effect on painful inflammation following trauma, topical. Conditions: 1% (w/v) in WEP442, topical. The protocol: A subject, experienced sharp pain in their right index finger while trying to loosen a screw-on lid of a fruit jar with their right hand. After about 10 minutes, the pain became throbbing in nature and very intense. The proximal interphalangeal became swollen and discolored (black and blue) from subcutaneous hemorrhage. […] Discoloration of the joint faded over the next several days.

For the next assay, the system named is herpes zoster pain. Put plainly: Example 6: analgesic effect on viral infection, topical. An excerpt:
A subject had herpes zoster on a temporal branch of the tri-geminal nerve with severe clinical pain involving the areas of left temporal, left forehead, left scalp, left neck, and left ear canal. Touching the left anterior scalp hair provoked severe pain.
The subject topically administered an anhydrous composition containing 0.5% (w/v) N-Ac-Tyr-Pro-Phe-Phe-NH2 (SEQ ID NO: 23) in EP73, formulated as described in Example 2, by applying a few drops to wet the skin surface. […] The pain relief lasted for up to 1 hour. Multiple repeated topical applications of the anhydrous composition containing 0.5% (w/v) N-Ac-Tyr-Pro-Phe-Phe-NH2 (SEQ ID NO: 23) in EP73 gave the same analgesic result with 4+ relief of pain according to clinical evaluation, and also for longer periods of up to 6 hours.

The subject of assay [2] is severe arthritis of the left hip. Put plainly: Example 18: analgesic effect on arthritic hip, topical. The protocol: A subject had severe arthritis of the left hip with pain and inflammation for 6 months.
The subject topically applied a composition containing 0.7% (w/v) N-Ac-Tyr-Pro-Phe-Phe-NH2 (SEQ ID NO: 23) in WEP442 to the left hip and covered the hip with plastic wrap overnight. The pain reduced about 50% in 8 hours. The samen procedure was repeated the following day. […] The analgesic effect observed was 100% improvement as judged by clinical evaluation.

Assay [3] concerns psoriatic arthritis of the fingers. As to the kind of experiment: Example 79: analgesic effect on psoriatic arthritis, topical. Conditions: 0.5% (w/v) in WEP442, topical once daily. An excerpt: A subject, presented with psoriatic arthritis of the fingers that was particularly painful in the right index finger joint and proximal joint of the left thumb.
In another assay the test system is moderate lower back pain. Put plainly: Example 23: analgesic effect on lower back pain, topical. Conditions: 1% (w/v) in WEP442, topical. The text has this:
A subject, working as a house cleaner, complained of moderate lower back pain at the end of a work day.

In assay [4] the test system is jaw pain after tooth extraction. Put plainly: Example 29: analgesic effect on dental extraction pain, topical. On the procedure: A subject had substantial pain in the right maxillary jaw that started about 2 hours after extraction of a right maxillary tooth. […] Only negligible discomfort, perceived by touching the extraction site with the tongue, was detectable thereafter.

For assay [5], the system named is chronic arthritic pain of left ankle. As to the kind of experiment: Example 9: analgesic effect on ankle pain, topical. An excerpt: A subject had chronic arthritic pain of their left ankle. They were previously treated with prescription corticosteroid injections.
The subject topically applied an anhydrous composition containing 0.5% (w/v) N-Ac-Tyr-Pro-Phe-Phe-NH2 (SEQ ID NO: 23) in EP73, formulated as described in Example 2, at bedtime. The next morning, they observed approximately 90% improvement of pain. The subject topically re-applied the same composition at bedtime. The following entire day, they had about 95% pain improvement.

Assay [6] has as its system back neck pain after cervical implant. Put plainly: Example 90: analgesic effect on post-surgery pain and discomfort, topical. Particulars: 1% (w/v) in WEP442, topical. An excerpt:
A subject had painful discomfort of their back neck for 2 years caused by a surgical titanium implant of the 7th cervical vertebra 2 years earlier. During the past years, the pain and discomfort had been improved from occasional treatments with acupuncture and massage therapy. However, such treatments provided only short term relief of pain and discomfort, usually one or two pain free days after each treatment.
On one afternoon, pain and discomfort suddenly developed. The subject topically applied a composition containing 1% (w/v) of N-Ac-Tyr-Pro-Phe-Phe-NH2 (SEQ ID NO: 23) in WEP442 solution to skin of their back neck area. […] The subject was free of pain and discomfort for at least 12 hours (4+ effect).

The next assay relates to knee pain. As to the kind of experiment: Example 32: analgesic effect on knee pain after housework, topical. Conditions: 1% (w/v) in WEP442, topical. The text has this:
A subject with discomforting knee pain in the evening after cleaning their own house for several hours topically applied a composition containing 1% (w/v) of N-Ac-Tyr-Pro-Phe-Phe-NH2 (SEQ ID NO: 23) in WEP442.

A further assay relates to headache. Put plainly: Example 72: analgesic effect on migraine headache, topical. Particulars: 0.5% (w/v) in WEP442, topical. An excerpt:
A subject who suffered from migraine headaches, woke up one morning with a headache, the type of which was uncertain. They topically applied to their forehead, periocular and temporal areas a composition containing 0.5% (w/v) of N-Pg-Tyr-Pro-Phe-Phe-NH2 (SEQ ID NO: 44) in WEP442.

The subject of assay [7] is pain in the muscles of the neck. Put plainly: Example 57: analgesic effect on stress pain in muscles of the neck, topical. Conditions: 0.6% (w/v) in WEP442, topical. The protocol: A farmer suffered substantial pain in the muscles of their neck the day after ploughing a field for several hours. During that time, they had almost constantly strained their neck muscles looking backward to monitor the performance of the plough behind. The pain was such that it disabled them from turning their head even slightly. […] Reapplication of the solution at that time again relieved the pain for another 4 hours. With repeated applications, they were able to perform usual farm maintenance work for the entire day. After a night's rest, the pain subsided spontaneously.

The mark [8] stands for this setting: 0.5% (w/v) in EP73, multiple repeated topical applications.

As to `CC(=O)N[C@@H](Cc1ccc(O)cc1)C(=O)N1CCC[C@H]1C(=O)N[C@@H](Cc1ccccc1)C(=O)N[C@@H](Cc1ccccc1)C(N)=O` [N-Ac-Tyr-Pro-Phe-Phe-NH2], the “duration of pain relief” value in the assay on sunburn pain was “about 3 hours”; with herpes zoster pain (setting [8]), “up to 6 hours”; in the assay on herpes zoster pain (0.5% (w/v) in EP73, topical, first application), “up to 1 hour”; in assay [3] it was 8 h; with knee pain it was 5 to 7 h. The pain relief result was “completely relieved almost instantly” in the assay on sunburn pain; “instantaneous total relief of pain” in assay [1]; “pain disappeared completely” in the assay on herpes zoster pain (0.5% (w/v) in EP73, topical); “complete relief of pain” in assay [3]; “almost complete relief of pain” in the assay on moderate lower back pain; “complete relief of pain” in assay [4] (1% (w/v) in WEP442, topical to facial maxillary area). Moreover, the pain relief result is “the pain and discomfort disappeared” in assay [6]; “Total relief of pain” with knee pain. The recurrence entry in assay [1] is “No pain returned”. Besides, the “relief of pain according to clinical evaluation” value with herpes zoster pain (setting [8]) was 4+ (4+ (90-100%): complete relief or eradication of pain for more than 4 hours). The “time to pain relief” value in the assay with herpes zoster pain (0.5% (w/v) in EP73, topical) is “Within about a minute”; with moderate lower back pain, 1 to 2 min; in assay [4] (1% (w/v) in WEP442, topical) it was at most 1 min; in assay [6] it was “about 5 minutes”; with knee pain it was at most 1 min. Also, the “improvement by clinical evaluation” value in [2] (0.7% (w/v) in WEP442, procedure repeated the following day, another 8 hours) was 100%. For the same compound, the pain reduction result in assay [2] (0.7% (w/v) in WEP442, under plastic wrap overnight, in 8 hours) is on record as “about 50%”. For the same compound, the pain improvement entry in [5] (0.5% (w/v) in EP73, re-applied at bedtime, following entire day) is reported as “about 95%”. Also, the improvement of pain result in [5] (0.5% (w/v) in EP73, topical at bedtime, next morning) is given as “approximately 90%”. Further, the analgesic effect grade in assay [6] was 4+ (4+ (90-100%): complete relief or eradication of pain for more than 4 hours). Besides, the “duration free of pain and discomfort” value in assay [6] is given as “at least 12 hours”.
In the case of “N-Pg-Tyr-Pro-Phe-Phe-NH2 ([pGlu]YPFF-NH2; SMILES NC(=O)[C@H](Cc1ccccc1)NC(=O)[C@H](Cc1ccccc1)NC(=O)[C@@H]1CCCN1C(=O)[C@H](Cc1ccc(O)cc1)NC(=O)[C@@H]1CCC(=O)N1)”, the headache relief result in the assay on headache is “promptly relieved and did not return”. Moreover, in [7], the “duration of pain relief” value is “about 4 hours” and the pain relief entry is recorded as “almost completely relieved”.
